Experimental data as given in PubChem BioAssay (NCI).
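96-well plates; 48 h exposure; 5 concentrations. Endpoints by linear interpolation between flanking doses. Not reached: highest tested concentration assigned. TGI is the concentration that stops growth completely.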

How the values were obtained:
Experiment in all cases: DTP human tumour cell line panel, 48 h
786-0 renal = system: 786-0 renal
DU-145 prostate = system: DU-145 prostate
HCC-2998 colon = system: HCC-2998 colon
HCT-15 colon = system: HCT-15 colon
HS 578T breast = system: HS 578T breast
HT29 colon = system: HT29 colon
K-562 leukemia = system: K-562 leukemia
KM12 colon = system: KM12 colon
M14 melanoma = system: M14 melanoma
MCF7 breast = system: MCF7 breast
MDA-N = system: MDA-N
NCI-H522 lung = system: NCI-H522 lung
OVCAR-3 ovarian = system: OVCAR-3 ovarian
OVCAR-8 ovarian = system: OVCAR-8 ovarian
RPMI-8226 leukemia = system: RPMI-8226 leukemia
SK-OV-3 ovarian = system: SK-OV-3 ovarian
SNB-75 CNS = system: SNB-75 CNS
U251 CNS = system: U251 CNS
UO-31 renal = system: UO-31 renal

SMILES	TGI (786-0 renal) [µM]	TGI (DU-145 prostate) [µM]	TGI (HCC-2998 colon) [µM]	TGI (HCT-15 colon) [µM]	TGI (HS 578T breast) [µM]	TGI (HT29 colon) [µM]	TGI (K-562 leukemia) [µM]	TGI (KM12 colon) [µM]	TGI (M14 melanoma) [µM]	TGI (MCF7 breast) [µM]	TGI (MDA-N) [µM]	TGI (NCI-H522 lung) [µM]	TGI (OVCAR-3 ovarian) [µM]	TGI (OVCAR-8 ovarian) [µM]	TGI (RPMI-8226 leukemia) [µM]	TGI (SK-OV-3 ovarian) [µM]	TGI (SNB-75 CNS) [µM]	TGI (U251 CNS) [µM]	TGI (UO-31 renal) [µM]
Cc1nc(Nc2ccccc2Cl)sc1C(=O)CC(=O)C(=O)Nc1c(Cl)cccc1Cl	66	> 100	> 100	> 100	> 100	> 100	> 100	91.4	> 100	> 100	> 100	60.4	57.8	96.7	> 100	> 100	88.6	64.3	86.1
CC(C)(C)C(=O)C(C(=O)C(C)(C)C)C(=O)C(C)(C)C	> 100	> 100	> 100	> 100	> 100	> 100	> 100	> 100	> 100	> 100	> 100	> 100	> 100	> 100	> 100	> 100	> 100	> 100	> 100
Cc1nc2ccc(S(=O)(=O)Nc3ccccc3)cc2c(=O)n1NC(=O)CNc1ccccc1	> 100	> 100	> 100	> 100	> 100	> 100	> 100	> 100	> 100	> 100	> 100	> 100	> 100	> 100	> 100	> 100	> 100	> 100	> 100
c1ccc(Cc2nc(Cc3n[nH]c(Cc4ccccc4)n3)n[nH]2)cc1	> 100	> 100	> 100	> 100	> 100	> 100	> 100	> 100	> 100	> 100	> 100	> 100	> 100	> 100	> 100	> 100	> 100	> 100	> 100
O=c1[nH]/c(=C/c2ccc(OCc3ccccc3)cn2)c(=O)[nH]/c1=C/c1ccc([N+](=O)[O-])cc1	> 100	> 100	> 100	> 100	> 78.4	> 100	> 100	> 100	> 100	> 100	> 100	> 100	> 100	> 100	> 100	> 100	70.2	> 100	> 100
Nc1nc(N)c(NC(=O)CCCO)c(=O)[nH]1	> 100	> 100	> 100	> 100	> 100	> 100	> 100	> 100	> 100	> 100	> 100	> 100	> 100	> 100	> 100	> 100	> 100	> 100	> 100
CN(CCCCN1CCCC1)CCCN(C)C(=O)Cc1ccc(Cl)c(Cl)c1	26.1	> 100	16.9	85.1	59.6	18.1	11.6	25.3	38.1	34.4	15.5	27.9	62.4	> 100	25.9	> 100	47.5	32.4	3.72
C=CC(c1ccccc1)[C@@]1(OC(C)=O)C(=O)C(=O)OC1C1COC(C)(C)O1 (stereo not given in full)	33.4	54.2	32.8	24.9	68.3	46.2	> 26	29.5	25.5	22.8	24.1	10.8	24.8	27.9	56.4	32.3	36.6	28.7	23.7
O=C1CC(O)c2c(Br)sc(Br)c21 (stereo not given)	14.8	22.2	18	43	55.9	43.1	8.3	20.8	28.8	15.5	22.5	29.4	19.9	24.1	11.8	30.3	29.8	16.4	7.19
CC(C)CC1C(=O)NCCC(NC(=O)C(N)Cc2ccc(O)cc2)C(=O)NC(Cc2ccccc2)C(=O)NC(Cc2ccccc2)NC1=O (stereo not given)	> 100	> 100	> 100	> 100	> 100	> 100	> 100	> 100	> 100	> 100	> 100	> 100	> 100	> 100	> 100	> 100	> 100	> 100	> 100
